Patent US10377770B2 (Novartis AG, priority 2015, dated 2019)

These compounds were tested against C-Raf FL (full length CRAF with Y340E and Y341E activating mutations, co-expressed with h14-3-3 zeta) (Homo sapiens (Human), UniProt P04049, Y340E/Y341E) (assay: In vitro Raf activity determination, AlphaScreen p-MEK readout, c-Raf (C-Raf FL)). Conditions: c-Raf approximately 4 nM, ATP 1 μM, pre-incubation 60 minutes, reaction 1 hour.
Assay type: biochemical
Procedure, shortened: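 Phosphorylation of kinase-dead biotinylated MEK1 (~10 nM) by C-Raf FL (~4 nM) read by AlphaScreen luminescence with anti-phospho-MEK1/2 after EDTA stop. ATP was 1 μM, with a 1 h reaction at room temperature. Compounds were pre-incubated with enzyme and substrate for 60 min in Tris/MgCl2 buffer, pH 7.5.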

Sequence of C-Raf FL (full length CRAF with Y340E and Y341E activating mutations, co-expressed with h14-3-3 zeta) (P04049 whole entry Y340E/Y341E): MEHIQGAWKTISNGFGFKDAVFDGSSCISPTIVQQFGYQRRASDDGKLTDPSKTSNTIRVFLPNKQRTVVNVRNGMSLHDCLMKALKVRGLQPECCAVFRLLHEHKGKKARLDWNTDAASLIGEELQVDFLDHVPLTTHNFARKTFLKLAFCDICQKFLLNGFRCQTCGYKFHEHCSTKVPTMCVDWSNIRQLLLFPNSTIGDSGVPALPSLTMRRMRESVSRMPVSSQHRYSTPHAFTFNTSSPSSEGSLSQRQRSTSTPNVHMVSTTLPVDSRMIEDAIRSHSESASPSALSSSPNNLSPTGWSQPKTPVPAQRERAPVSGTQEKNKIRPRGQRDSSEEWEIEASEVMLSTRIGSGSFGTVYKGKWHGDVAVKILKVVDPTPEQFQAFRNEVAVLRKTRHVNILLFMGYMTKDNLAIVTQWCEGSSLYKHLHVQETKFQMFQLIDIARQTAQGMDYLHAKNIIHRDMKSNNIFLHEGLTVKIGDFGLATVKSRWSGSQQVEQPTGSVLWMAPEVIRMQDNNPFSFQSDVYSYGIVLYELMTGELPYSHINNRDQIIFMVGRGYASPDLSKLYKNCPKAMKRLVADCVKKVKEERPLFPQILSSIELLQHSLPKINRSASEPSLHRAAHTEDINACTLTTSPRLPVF
Sequence of C-Raf FL (full length CRAF with Y340E and Y341E activating mutations, co-expressed with h14-3-3 zeta) (P63104 whole entry partner): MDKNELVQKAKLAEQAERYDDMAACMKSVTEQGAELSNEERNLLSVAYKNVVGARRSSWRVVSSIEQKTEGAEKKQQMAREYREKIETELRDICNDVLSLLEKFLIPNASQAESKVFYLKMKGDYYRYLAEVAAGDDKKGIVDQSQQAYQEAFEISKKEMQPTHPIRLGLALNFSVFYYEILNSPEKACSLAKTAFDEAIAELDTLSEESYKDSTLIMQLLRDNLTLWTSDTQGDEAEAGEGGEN

Row | Compound | IC50 [nM]
1 | Cc1ccc(NC(=O)c2ccnc(C(F)(F)F)c2)cc1-c1ccc2c(c1)N1CCOC[C@H]1[C@](F)(CO)C2 [Example 382, N-(3-((4aS,5S)-5-fluoro-5-(hydroxymethyl)-1,2,4,4a,5,6-hexahydro-[1,4]oxazino[4,3-a]quinolin-9-yl)-4-methylphenyl)-2-(trifluoromethyl)isonicotinamide] | 0.2
2 | Cc1ccc(NC(=O)c2ccnc(C(C)(C)F)c2)cc1-c1cc2n(c(=O)c1)CC[C@H]1CCOCCN21 [Example 417, (S)-2-(2-fluoropropan-2-yl)-N-(4-methyl-3-(9-oxo-1,2,5,5a,6,7-hexahydro-4H,9H-pyrido[2′,1′:2,3]pyrimido[1,6-d][1,4]oxazepin-11-yl)phenyl)isonicotinamide] | 0.5
3 | Cc1ccc(NC(=O)c2ccnc(C(C)(F)F)c2)cc1-c1cnc2c(c1)N1CCOC[C@H]1[C@H](F)[C@H]2O (relative stereo) [Example 140, rac-2-(1,1-difluoroethyl)-N-(3-((4aS*,5S*,6S*)-5-fluoro-6-hydroxy-1,2,4,4a,5,6-hexahydro-[1,4]oxazino[4,3-a][1,5]naphthyridin-9-yl)-4-methylphenyl)isonicotinamide] | 0.0085
4 | Cc1ccc(NC(=O)c2ccnc(C(F)(F)F)c2)cc1-c1cnc2c(c1)N1CCOCC1C(C)(C)C2O (stereo not shown) [Example 335, N-(3-(6-hydroxy-5,5-dimethyl-1,2,4,4a,5,6-hexahydro-[1.4]oxazino[4,3-a][1.5]naphthyridin-9-yl)-4-methylphenyl)-2-(trifluoromethyl) isonicotinamide] | 0.1
5 | Cc1ccc(NC(=O)c2ccnc(C(C)(F)F)c2)cc1-c1ccc2c(c1)N1CCOCC1CC2O (racemic) [Example 6, (rac)-2-(1,1-difluoroethyl)-N-(3-(6-hydroxy-1,2,4,4a,5,6-hexahydro-[1,4]oxazino[4,3-a]quinolin-9-yl)-4-methylphenyl)isonicotinamide] | 0.076
6 | CCN1C(=O)[C@H]2[C@@H]3COC[C@@H]3[C@H]2c2cc(-c3cc(NC(=O)c4ccnc(C(C)(F)F)c4)ccc3C)cnc21 [Example 271, 2-(1,1-difluoroethyl)-N-(3-((6aR, 6bR, 9aR, 9bR)-5-ethyl-6-oxo-5,6,6a,6b,7,9,9a,9b-octahydrofuro[3′,4′: 3,4]cyclobuta[1,2-c][1,8]naphthyridin 2-yl)-4-methylphenyl) isonicotinamide] | 0.2
7 | Cc1ccc(NC(=O)c2ccnc(C(C)(F)F)c2)cc1-c1cnc2c(c1)[C@@H]1CCOC[C@H]1C(=O)N2CC(C)(C)O [Example 287, 2-(1,1-difluoroethyl)-N-(3-((4aS,10bR)-6-(2-hydroxy-2-methylpropyl)-5-oxo-2,4,4a,5,6,10b-hexahydro-1H-pyrano[3,4-c][1,8]naphthyridin-9-yl)-4-methylphenyl) isonicotinamide] | 0.2
8 | Cc1ncc(NC(=O)c2cccc(C(F)(F)F)c2)cc1-c1cnc2c(c1)N1CCOCCC1CC(=O)N2CCO (stereo not shown) [Example 319, N-(5-(8-(2-hydroxyethyl)-7-oxo-1,2,4,5,5a,6,7,8-octahydropyrido[3′, 2′:2,3][1,4]diazepino [1,7-d][1,4]oxazepin-11-yl)-6-methylpyridin-3-yl)-3-(trifluoromethyl) benzamide] | 2.2
9 | Cc1ncc(NC(=O)c2ccnc(C(C)(F)F)c2)cc1-c1ccc2c(c1)N1CCOCC1C(F)(CO)C2 (racemic) [Example 79, (rac)-2-(1,1-difluoroethyl)-N-(5-(5-fluoro-5-(hydroxymethyl)-1,2,4,4a,5,6-hexahydro-[1,4]oxazino[4,3-a]quinolin-9-yl)-6-methylpyridin-3-yl)isonicotinamide] | 0.038
10 | Cc1ccc(NC(=O)c2ccnc(C(C)(F)F)c2)cc1-c1cnc2c(c1)N1CCOC[C@@H]1[C@](C#N)(CF)C2 [Example 516, N-(3-((4aS,5R)-5-cyano-5-(fluoromethyl)-1,2,4,4a,5,6-hexahydro-[1,4]oxazino[4,3-a][1,5]naphthyridin-9-yl)-4-methylphenyl)-2-(1,1-difluoroethyl)iso-nicotinamide] | 0.1
11 | Cc1ccc(NC(=O)c2ccnc(C(C)(F)F)c2)cc1-c1cc2n(c(=O)c1)CC[C@@H]1COCCN21 [Example 413, (R)-2-(1,1-difluoroethyl)-N-(4-methyl-3-(8-oxo-1,2,4,4a,5,6-hexahydro-8H-pyrido[2′,1′:2,3]pyrimido[6,1-c][1,4]oxazin-10-yl)phenyl)isonicotinamide] | 0.2
12 | Cc1ccc(NC(=O)c2ccnc(C(C)(F)F)c2)cc1-c1ccc2c(c1)N1CCOC[C@H]1C(CO)(CO)C2 (single isomer, unassigned) [Example 52] | 0.16
13 | Cc1ccc(NC(=O)c2cncc(C(F)(F)F)c2)cc1-c1cc(F)c2c(c1)N1CCOC[C@H]1[C@@](F)(CO)C2 [Example 434, N-(3-((4aS,5R)-5,7-difluoro-5-(hydroxymethyl)-1,2,4,4a,5,6-hexahydro-[1,4]oxazino[4,3-a]quinolin-9-yl)-4-methylphenyl)-5-(trifluoromethyl)nicotinamide] | 1.3
14 | Cc1ccc(NC(=O)c2ccnc(C(C)(F)F)c2)cc1-c1cnc2c(c1)N1CCOC[C@H]1[C@](C#N)(CF)C2 [Example 518, N-(3-((4aR,5R)-5-cyano-5-(fluoromethyl)-1,2,4,4a,5,6-hexahydro-[1,4]oxazino[4,3-a][1,5]naphthyridin-9-yl)-4-methyphenyl)-2-(1,1-difluoroethyl)iso-nicotinamide] | 0.1
15 | Cc1ccc(NC(=O)c2ccnc(C(C)(C)C#N)c2)cc1-c1cnc2c(c1)N1CCOCC1C1(COC1)C2 (racemic) [Example 157, rac-2-(2-cyanopropan-2-yl)-N-(4-methyl-3-(2,4,4a,6-tetrahydro-1H-spiro[[1,4]oxazino[4,3-a][1,5]naphthyridine-5,3′-oxetan]-9-yl)phenyl)isonicotinamide] | 0.16
16 | Cc1ccc(NC(=O)c2ccnc(C(F)(F)F)c2)cc1-c1cnc2c(c1)N1CCOC[C@H]1C[C@]2(C)O (racemic) [Example 40, (rac)-(cis)-N-(3-(6-hydroxy-6-methyl-1,2,4,4a,5,6-hexahydro-[1,4]oxazino[4,3-a][1,5]naphthyridin-9-yl)-4-methylphenyl)-2-(trifluoromethyl)isonicotinamide] | 0.066
17 | Cc1ncc(NC(=O)c2ccnc(C(C)(F)F)c2)cc1-c1ccc2c(c1)N1CCOC[C@H]1[C@@](C)(C#N)C2 (racemic) [Example 89, (rac)-N-(5-(5-cyano-5-methyl-1,2,4,4a,5,6-hexahydro-[1,4]oxazino[4,3-a]quinolin-9-yl)-6-methylpyridin-3-yl)-2-(1,1-difluoroethyl)isonicotinamide] | 0.036
18 | Cc1ccc(NC(=O)c2ccnc(C(C)(C)C)c2)cc1-c1ccc2c(c1)N1CCOC[C@H]1[C@](F)(CF)C2 [Example 474, 2-(tert-butyl)-N-(3-((4aS,5S)-5-fluoro-5-(fluoromethyl)-1,2,4,4a,5,6-hexahydro-[1,4]oxazino[4,3-a]quinolin-9-yl)-4-methylphenyl)iso-nicotinamide] | 5.5
19 | CCN1C(=O)[C@H]2COCC[C@@H]2c2cc(-c3cc(NC(=O)c4ccnc(C(F)(F)F)c4)ccc3C)cnc21 [Example 236, N-(3-((4aR,10bS)-6-ethyl-5-oxo-1,4,4a,5,6,10b-hexahydro-2H-pyrano[3,4-c][1,8]naphthyridin-9-yl)-4-methylphenyl)-2-(trifluoromethyl)isonicotinamide] | 0.3
20 | Cc1ccc(NC(=O)c2ccnc(C(C)(F)F)c2)cc1-c1cnc2c(c1)N1CCOC[C@H]1CC(=O)N2CC(C)(C)O [Example 289, (R)-2-(1,1-difluoroethyl)-N-(3-(7-(2-hydroxy-2-methylpropyl)-6-oxo-2,4,4a,5,6,7-hexahydro-1H-[1,4]oxazino[4,3-d]pyrido[2,3-b][1,4]diazepin-10-yl)-4-methylphenyl) isonicotinamide] | 0.9
21 | CCN1C[C@@H]2COCC[C@H]2c2cc(-c3cc(NC(=O)c4cccc(C(F)(F)F)c4F)cnc3C)cnc21 [Example 294, N-(5-((4aR, 10bR)-6-ethyl-2,4,4a,5,6,10b-hexahydro-1H-pyrano[3,4-c][1,8]naphthyridin-9-yl)-6-methylpyridin-3-yl)-2-fluoro-3-(trifluoromethyl) benzamide] | 0.1
22 | CCN1C[C@H]2CCOCCN2c2cc(-c3cc(NC(=O)c4cccc(C(F)(F)F)c4)cnc3C)cnc2C1=O [Example 507, (R)-N-(5-(7-ethyl-8-oxo-1,2,4,5,5a,6,7,8-octahydropyrido[2′, 3′:6,7][1,4]diazepino [1,2-d][1,4]oxazepin-11-yl)-6-methylpyridin-3-yl)-3-(trifluorometh-yl)benzamide] | 26.9
23 | CCN1C(=O)CC2CCOCCN2c2cc(-c3cc(NC(=O)c4ccnc(C(F)(F)F)c4)ccc3C)cnc21 (stereo not shown) [Example 314, N-(3-(8-ethyl-7-oxo-1,2,4,5,5a,6,7,8-octahydropyrido[3′, 2′:2,3][1,4]diazepino [1,7-d][1,4]oxazepin-11-yl)-4-methylphenyl)-2-(trifluoromethyl) isonicotinamide] | 0.6
24 | Cc1ccc(NC(=O)c2ccnc(C(C)(F)F)c2)cc1-c1ccc2c(c1)N1CCOC[C@@H]1[C@@](CO)(CF)C2 [Example 407, 2-(1,1-difluoroethyl)-N-(3-((4aS,5S)-5-(fluoromethyl)-5-(hydroxymethyl)-1,2,4,4a,5,6-hexahydro-[1,4]oxazino[4,3-a]quinolin-9-yl)-4-methylphenyl)isonicotinamide] | 0.1
25 | Cc1ccc(NC(=O)c2ccnc(C(F)(F)F)c2)cc1-c1cnc2c(c1)N1CCOCC1CC2N (racemic) [Example 171, rac-N-(3-(6-amino-1,2,4,4a,5,6-hexahydro-[1,4]oxazino[4,3-a][1,5]naphthyridin-9-yl)-4-methylphenyl)-2-(trifluoromethyl)isonicotinamide] | 0.019
